# Target: T1, human 11β-HSD1 (Homo sapiens, UniProt P28845)
# T1 construct: host or cells: microsome fraction
# Assay: Enzymatic 11beta-HSD1 test (SPA-based detection)
# Format: biochemical
# Settings: human 11β-HSD1 microsome fraction, [1,2-3H]-cortisone, NADPH, 37° C. 1 hour
# How it was run: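 Human 11β-HSD1 microsomes (0.2 µg protein) converted [1,2-3H]-cortisone ([…]) for 1 h at 37 °C. The reaction buffer was HEPES/KCl/NaCl/MgCl2 with 0.25 mM NADPH, with compounds added in DMSO. The reaction was stopped with SPA beads, anti-cortisol monoclonal antibody and 0.01 mM SSR110887; after 1 h at room temperature, [3H]-cortisol was scintillation-counted.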
# T1 sequence (P28845 whole entry): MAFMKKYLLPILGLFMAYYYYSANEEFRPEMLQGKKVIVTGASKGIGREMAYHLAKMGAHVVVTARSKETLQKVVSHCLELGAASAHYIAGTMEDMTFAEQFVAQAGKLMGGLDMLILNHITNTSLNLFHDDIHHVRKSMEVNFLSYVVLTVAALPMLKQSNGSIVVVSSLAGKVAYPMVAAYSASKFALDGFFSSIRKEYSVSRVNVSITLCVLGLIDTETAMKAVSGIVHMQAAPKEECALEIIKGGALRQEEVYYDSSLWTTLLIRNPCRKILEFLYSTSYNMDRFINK
row,Compound,IC50 [µM]
1,"Cc1ccccc1-c1ccc(C2(C)C(C)(C)OC(N[C@@H](CCO)c3ccccc3F)=NS2(=O)=O)cc1 (stereo partly drawn) [Example 79, (S)-3-(2-Fluorophenyl)-3-[5,6,6-trimethyl-5-(2′-methyl-biphenyl-4-yl)-4,4-dioxo-5,6-dihydro-4H-4lambda6-[1,4,3]oxathiazin-2-ylamino]-propan-1-ol]",0.008
2,"CC1(C)OC(N[C@@H](CCO)c2ccccc2F)=NS(=O)(=O)C1(C)c1ccc(-c2ccc(F)cc2)cc1 (stereo partly drawn) [Example 80, (S)-3-[5-(4′-Fluorobiphenyl-4-yl)-5,6,6-trimethyl-4,4-dioxo-5,6-dihydro-4H-4lambda6-[1,4,3]oxathiazin-2-ylamino]-3-(2-fluorophenyl)-propan-1-ol]",0.007
3,"COc1ccc(-c2ccc(C3(C)C(C)(C)OC(N[C@@H](CCO)c4ccccc4F)=NS3(=O)=O)cc2)cc1 (stereo partly drawn) [Example 81, (S)-3-(2-Fluorophenyl)-3-[5-(4′-methoxy-biphenyl-4-yl)-5,6,6-trimethyl-4,4-dioxo-5,6-dihydro-4H-4lambda6-[1,4,3]oxathiazin-2-ylamino]-propan-1-ol]",0.01
4,"CC1(C)OC(NC(CCO)c2cccc(F)c2F)=NS(=O)(=O)C1c1ccc(-c2ccccc2)cc1 (stereo not drawn) [Example 82, 3-(5-Biphenyl-4-yl-6,6-dimethyl-4,4-dioxo-5,6-dihydro-4H-4lambda6-[1,4,3]oxathiazin-2-ylamino)-3-(2,3-difluorophenyl)-propan-1-ol]",0.023
5,"CC1(C)OC(N[C@@H](CCO)c2ccccc2Cl)=NS(=O)(=O)C1c1ccc(-c2ccccc2)cc1 (stereo partly drawn) [Example 83, (S)-3-(5-Biphenyl-4-yl-6,6-dimethyl-4,4-dioxo-5,6-dihydro-4H-4lambda6-[1,4,3]oxathiazin-2-ylamino)-3-(2-chloro-phenyl)-propan-1-ol]",0.017
6,COc1cccc(-c2ccc(C3C(C)(C)OC(N[C@@H](CCO)c4ccccc4F)=NS3(=O)=O)cc2)c1 (stereo partly drawn) [Example 86],0.01
7,CC1(C)OC(N[C@@H](CCO)c2ccccc2F)=NS(=O)(=O)C1c1ccc(-c2ccccc2C#N)cc1 (stereo partly drawn) [Example 87],0.007
8,"CC1(C)OC(N[C@@H](CCO)c2ccc(Cl)cc2)=NS(=O)(=O)C1c1ccc(-c2ccccc2)cc1 (stereo partly drawn) [Example 88, (S)-3-(5-Biphenyl-4-yl-6,6-dimethyl-4,4-dioxo-5,6-dihydro-4H-4lambda6-[1,4,3]oxathiazin-2-ylamino)-3-(4-chloro-phenyl)-propan-1-ol]",0.198
9,"CC1(C)OC(N[C@@H](CCO)c2cccc(Cl)c2)=NS(=O)(=O)C1c1ccc(-c2ccccc2)cc1 (stereo partly drawn) [Example 89, (S)-3-(5-Biphenyl-4-yl-6,6-dimethyl-4,4-dioxo-5,6-dihydro-4H-4lambda6-[1,4,3]oxathiazin-2-ylamino)-3-(3-chloro-phenyl)-propan-1-ol]",0.021
10,"CC1(C)OC(N[C@@H](CCO)c2ccccc2F)=NS(=O)(=O)C1c1ccc(-c2cncnc2)cc1 (stereo partly drawn) [Example 90, (S)-3-[6,6-Dimethyl-4,4-dioxo-5-(4-pyrimidin-5-yl-phenyl)-5,6-dihydro-4H-4lambda6-[1,4,3]oxathiazin-2-ylamino]-3-(2-fluorophenyl)-propan-1-ol]",0.007
11,"CC1(C)OC(N[C@@H](CCO)c2ccccc2F)=NS(=O)(=O)C1c1ccc(-c2ccc(Cl)s2)cc1 (stereo partly drawn) [Example 91, (S)-3-{5-[4-(5-Chlorothiophen-2-yl)-phenyl]-6,6-dimethyl-4,4-dioxo-5,6-dihydro-4H-4lambda6-[1,4,3]oxathiazin-2-ylamino}-3-(2-fluorophenyl)-propan-1-ol]",0.011
12,"CC1(C)OC(N[C@@H](CCO)c2ccccc2F)=NS(=O)(=O)C1c1ccc(-c2cc(Cl)sc2Cl)cc1 (stereo partly drawn) [Example 92, (S)-3-{5-[4-(2,5-Dichlorothiophen-3-yl)-phenyl]-6,6-dimethyl-4,4-dioxo-5,6-dihydro-4H-4lambda6-[1,4,3]oxathiazin-2-ylamino}-3-(2-fluorophenyl)-propan-1-ol]",0.023
13,CC1(C)OC(N[C@@H](CCO)c2ccccc2F)=NS(=O)(=O)C1c1ccc(-c2cccc(C#N)c2)cc1 (stereo partly drawn) [Example 93],0.006
14,"COc1ccccc1-c1ccc(C2C(C)(C)OC(N[C@@H](CCO)c3ccccc3F)=NS2(=O)=O)cc1 (stereo partly drawn) [Example 94, (S)-3-(2-Fluorophenyl)-3-[5-(2′-methoxy-biphenyl-4-yl)-6,6-dimethyl-4,4-dioxo-5,6-dihydro-4H-4lambda6-[1,4,3]oxathiazin-2-ylamino]-propan-1-ol]",0.014
15,CC1(C)OC(N[C@@H](CCO)c2ccccc2F)=NS(=O)(=O)C1c1ccc(-c2ccc(C#N)cc2)cc1 (stereo partly drawn) [Example 95],0.006
16,"CC1(C)OC(N[C@@H](CCO)c2cccc(F)c2Cl)=NS(=O)(=O)C1c1ccc(-c2ccccc2)cc1 (stereo partly drawn) [Example 96, (S)-3-(5-Biphenyl-4-yl-6,6-dimethyl-4,4-dioxo-5,6-dihydro-4H-4lambda6-[1,4,3]oxathiazin-2-ylamino)-3-(2-chloro-3-fluorophenyl)-propan-1-ol]",0.01
17,"CC1(C)OC(N[C@@H](CCO)c2ccc(F)cc2F)=NS(=O)(=O)C1c1ccc(-c2ccccc2)cc1 (stereo partly drawn) [Example 97, (S)-3-(5-Biphenyl-4-yl-6,6-dimethyl-4,4-dioxo-5,6-dihydro-4H-4lambda6-[1,4,3]oxathiazin-2-ylamino)-3-(2,4-difluorophenyl)-propan-1-ol]",0.016

row,Compound,IC50 [µM]
1,"CC1(C)OC(N[C@@H](CCO)c2cc(F)ccc2F)=NS(=O)(=O)C1c1ccc(-c2ccccc2)cc1 (stereo partly drawn) [Example 98, (S)-3-(5-Biphenyl-4-yl-6,6-dimethyl-4,4-dioxo-5,6-dihydro-4H-4lambda6-[1,4,3]oxathiazin-2-ylamino)-3-(2,5-difluorophenyl)-propan-1-ol]",0.012
2,"CC1(C)OC(N[C@@H](CCO)c2cc(Cl)ccc2F)=NS(=O)(=O)C1c1ccc(-c2ccccc2)cc1 (stereo partly drawn) [Example 99, (S)-3-(5-Biphenyl-4-yl-6,6-dimethyl-4,4-dioxo-5,6-dihydro-4H-4lambda6-[1,4,3]oxathiazin-2-ylamino)-3-(5-chloro-2-fluorophenyl)-propan-1-ol]",0.025
3,"Cc1ccc(F)cc1[C@H](CCO)NC1=NS(=O)(=O)C(c2ccc(-c3ccccc3)cc2)C(C)(C)O1 (stereo partly drawn) [Example 100, (S)-3-(5-Biphenyl-4-yl-6,6-dimethyl-4,4-dioxo-5,6-dihydro-4H-4lambda6-[1,4,3]oxathiazin-2-ylamino)-3-(5-fluoro-2-methyl-phenyl)-propan-1-ol]",0.019
4,"CC1(C)OC(N[C@@H](CCO)c2ccccc2F)=NS(=O)(=O)C1c1ccc(-c2cscn2)cc1 (stereo partly drawn) [Example 101, (S)-3-[6,6-Dimethyl-4,4-dioxo-5-(4-thiazol-4-yl-phenyl)-5,6-dihydro-4H-4lambda6-[1,4,3]oxathiazin-2-ylamino]-3-(2-fluorophenyl)-propan-1-ol]",0.005
5,"CC1(C)OC(N[C@@H](CCO)c2ccccc2F)=NS(=O)(=O)C1c1ccc(C(F)(F)F)cc1 (stereo partly drawn) [Example 102, (S)-3-[6,6-Dimethyl-4,4-dioxo-5-(4-trifluormethyl-phenyl)-5,6-dihydro-4H-4lambda6-[1,4,3]oxathiazin-2-ylamino]-3-(2-fluorophenyl)-propan-1-ol]",0.006
6,CN1CCC(c2ccc(C3C(C)(C)OC(N[C@@H](CCO)c4ccccc4F)=NS3(=O)=O)cc2)CC1 (stereo partly drawn) [Example 103],0.032
7,CC1(C)OC(N[C@@H](CCO)c2ccccc2F)=NS(=O)(=O)C1c1ccc(C2CCN(CCO)CC2)cc1 (stereo partly drawn) [Example 104],0.028
8,CC1(C)OC(N[C@@H](CCO)c2ccccc2F)=NS(=O)(=O)C1c1ccc(C2CCN(CC(F)F)CC2)cc1 (stereo partly drawn) [Example 105],0.008
9,"CC1(C)OC(N[C@@H](CCO)c2ccccc2F)=NS(=O)(=O)C1c1ccc(CCCN)cc1 (stereo partly drawn) [Example 106, (5)-3-{5-[4-(3-Amino-propyl)-phenyl]-6,6-dimethyl-4,4-dioxo-5,6-dihydro-4H-4lambda6-[1,4,3]oxathiazin-2-ylamino}-3-(2-fluorophenyl)-propan-1-ol]",0.026
10,"CC1(C)OC(N[C@@H](CCO)c2ccccc2F)=NS(=O)(=O)C1c1ccc(N2CCOCC2)cc1 (stereo partly drawn) [Example 107, (S)-3-[6,6-Dimethyl-5-(4-morpholin-4-yl-phenyl)-4,4-dioxo-5,6-dihydro-4H-4lambda6-[1,4,3]oxathiazin-2-ylamino]-3-(2-fluorophenyl)-propan-1-ol]",0.033
11,"CN(C)CCCc1ccc(C2C(C)(C)OC(N[C@@H](CCO)c3ccccc3F)=NS2(=O)=O)cc1 (stereo partly drawn) [Example 108, (S)-3-{5-[4-(3-Dimethylamino-propyl)-phenyl]-6,6-dimethyl-4,4-dioxo-5,6-dihydro-4H-4lambda6-[1,4,3]oxathiazin-2-ylamino}-3-(2-fluorophenyl)-propan-1-ol]",0.042
12,CN1CCN(c2ccc(C3C(C)(C)OC(N[C@@H](CCO)c4ccccc4F)=NS3(=O)=O)cc2)CC1 (stereo partly drawn) [Example 109],0.079
13,CC1(C)OC(N[C@@H](CCO)c2ccccc2F)=NS(=O)(=O)C1c1ccc(CCCN2CCOCC2)cc1 (stereo partly drawn) [Example 110],0.027
14,"Cn1nccc1-c1ccc(C2C(C)(C)OC(N[C@@H](CCO)c3ccccc3F)=NS2(=O)=O)cc1 (stereo partly drawn) [Example 111, (S)-3-{6,6-Dimethyl-5-[4-(2-methyl-2H-pyrazol-yl)-phenyl]-4,4-dioxo-5,6-dihydro-4H-4lambda6-[1,4,3]oxathiazin-2-ylamino}-3-(2-fluorophenyl)-propan-1-ol]",0.007
15,"CN(C)C(=O)c1ccc(-c2ccc(C3C(C)(C)OC(N[C@@H](CCO)c4ccccc4F)=NS3(=O)=O)cc2)cc1 (stereo partly drawn) [Example 112, 4′-{2-[(S)-1-(2-fluorophenyl)-3-hydroxy-propylamino]-6,6-dimethyl-4,4-dioxo-5,6-dihydro-4H-4lambda6-[1,4,3]oxathiazin-5-yl}-biphenyl-4-carboxylic acid dimethylamide]",0.007
16,"CC1(C)OC(N[C@@H](CCO)c2ccccc2F)=NS(=O)(=O)C1c1ccc(-c2cccnc2)cc1 (stereo partly drawn) [Example 113, (S)-3-[6,6-Dimethyl-4,4-dioxo-5-(4-pyridin-3-yl-phenyl)-5,6-dihydro-4H-4lambda6-[1,4,3]oxathiazin-2-ylamino]-3-(2-fluorophenyl)-propan-1-ol]",0.004

# Reference: patent US8895547B2, “Substituted phenyl-oxathiazine derivatives, method for producing them, drugs containing said compounds and the use thereof” (Sanofi, priority 2011, dated 2014)
